Measurements taken from patent US10858388B2, “Selective progesterone receptor modulator (SPRM) regimen” (BAYER PHARMA AKTIENGESELLSCHAFT, priority 2015, dated 2020).
Entries after “also recorded” stand apart in the source; their conditions may differ.

Columns and labels:
Type in all cases: in vivo, human
[1] = tested on: subjects with uterine fibroids; assay: Study 15788: endometrial biopsies, PAEC and histology (Example 3)
Description: A randomized, parallel-group, double-blind, placebo-controlled, multi-center study to assess efficacy of different doses of Compound 1 where primary efficacy variable is Endometrium thickness and secondary efficacy variable is PAEC in subjects with uterine fibroids over a 3-month treatment [1×12 weeks/84 days]
The first endometrial biopsy was performed on Day 9+/−2 of the first or second menstrual cycle after screening visit 1, i.e. at screening visit 2.
Biopsy was determined by randomization. This means that subjects were randomized to the time point of the second biopsy and were informed about the group they are in, directly after randomization followed by stratification by dose group.
If a subject was randomized to this time point, the biopsy was scheduled on Day 9+/−2 of the first menstrual cycle after the treatment visit 2 (corresponding to Visit 5), i.e. during the last 4 weeks of study drug treatment. If no menstrual bleeding occurs between the treatment visit 2 (Visit 5) and the end of treatment (EoT) visit (Visit 6), the biopsy was performed at the end of treatment (EoT) visit (Visit 6).
(§1) If a subject was randomized to this time point, the biopsy was scheduled on Day 9+/−2 of the first menstrual cycle after the end of treatment. If no menstrual bleeding occurs until 12 weeks after end of treatment, i.e. until the follow-up visit 2 (Visit 8), a biopsy was performed at the follow-up visit 2 (Visit 8) and induction of bleeding was considered.
as §1, with “second” for “first”
as §1, with “subject is” for “subject was”, “Day 9+1-2” for “Day 9+/−2”, “the third” for “the first”, “after” for “after the”, “bleeding occurred” for “bleeding occurs”
The third endometrial biopsy was performed at the follow-up visit 3 (Visit 9), which was scheduled on Day 9+/−2 of the menstrual cycle which started following Week 20 after the end of treatment. If no bleeding episode occurred, Visit 9 was performed 24 weeks after end of treatment, i.e. Visit 9 took place 21 to 24 weeks after the end of treatment in all subjects. If the second endometrial biopsy was performed less than 6 weeks before the scheduled date of the third endometrial biopsy and pathological findings were absent, the third endometrial biopsy was not required.
After the end of treatment, subjects were followed up for 21 to 24 weeks (Follow-up period). […] In case of findings that require further follow-up, additional visits were scheduled according to normal standard practice.
Efficacy Measurement: • endometrial biopsies • cervical smear • transvaginal ultrasound TVU (endometrial thickness, ovaries)
FIG. 2: PAEC in biopsy after 1st/2nd/3rd bleeding episodes (menses). Pharmacodynamic effecs on the endometrium. Percentage of subjects with PAEC.

[2] = tested on: subjects with uterine fibroids; assay: Study 17541: amenorrhea, 3-month vs 6-month treatment (Example 5)
Description: A randomized, parallel-group, double-blind, placebo-controlled, multi-center study to assess efficacy of a dose of 2 mg of Compound 1 where primary efficacy variable is Amenorrhea, in subjects with uterine fibroids over 3 months [1×12 weeks] and 6 months [2×12 weeks without treatment break].
Test drug: Compound 1 Doses: 2 mg, once daily
(§2) Route of administration: Oral
Duration of treatment: 2×12 weeks without treatment break
(§3) Women, 18 to 50 years old, with uterine fibroids documented by transvaginal or abdominal ultrasound at screening with at least 1 uterine fibroid with largest diameter 3 cm and Heavy Menstrual Bleeding (HMB) 80∃ ml were eligible for enrolment in the study.
Eligible subjects will be equally randomized to one of the treatment groups (Placebo, 2 mg of Compound 1). Treatment will start during the first week of the menstrual cycle following randomization. The treatment period will consist of 1×12 and 2×12 weeks (84 days) of daily tablet intake. • Treatment A1: 2 mg of Compound 1 (12 weeks), 2 mg of Compound 1 (12 weeks) without treatment break • Treatment A2: Placebo (12 weeks), 2 mg of Compound 1 (12 weeks).
Efficacy Measurement: • daily documentation of bleeding intensity (electronic diary or eDiary) • Menstrual Pictogram MP (electronic diary or eDiary).
Onset of amenorrhea is defined by the first day for which the menstrual blood loss (assessed by MP) for all subsequent 28-day periods up to the end of the treatment period is less than 2 ml.
The primary endpoint amenorrhea (no/yes) was based on the bleeding intensity recorded in the eDiary/Daily bleeding diary.

[3] = tested on: subjects with uterine fibroids; assay: Study 17541: endometrium thickness, 3-month vs 6-month treatment without break (Example 6); settings: 2 mg once daily, 13 subjects, blinded, preliminary data, 3 or 6 months without break
Description: A randomized, parallel-group, double-blind, placebo-controlled, multi-center study to assess efficacy of a dose of 2 mg of Compound 1 where primary efficacy variable is Endometrium thickness, in subjects with uterine fibroids over 3-month vs 6-month with or without treatment break.
as §2
Duration of treatment: 2×12 weeks (A1) or 1×12 weeks (A2) without treatment break
as §3
Number of Women: 13 subjects having finished the treatment so far.
Eligible subjects were equally randomized to one of the treatment groups (Placebo, 2 mg of Compound 1). Treatment period was started during the first three days of the bleeding episode following randomization or ongoing at randomization. The treatment period will consist of 3 months (12 weeks) or 6 months [2×12 weeks (84 days)] of daily tablet intake without treatment break. • Treatment A1: 2 mg of Compound 1 (12 weeks), 2 mg of Compound 1 (12 weeks). • Treatment A2: Placebo (12 weeks), 2 mg of Compound 1 (12 weeks).
After the end of treatment period, subjects were followed up for 12 weeks. […]

[4] = 6 months (2x12 weeks without treatment break)

C[C@]12C[C@H](c3ccc(S(C)(=O)=O)cc3)C3=C4CCC(=O)C=C4CC[C@H]3[C@@H]1CC[C@@]2(O)C(F)(F)C(F)(F)F [Compound 1, (11β,17β)-17-Hydroxy-11-[4-(methylsulphonyl)phenyl]-17-(pentafluoroethyl)estra-4,9-dien-3-one]
Treatment-emergent critical endometrial findings ([1]; 0.5-4 mg once daily, 12 weeks): No treatment-emergent critical endometrial findings occurred | Resolution of PAECs after bleeding episodes ([1]; break / follow-up after end of treatment): already resolved after one bleeding; also recorded: resolve PAECs already after one bleeding | Endometrial histology in biopsies at the end of follow-up ([1]; end of follow-up, all available samples): benign endometrial histology changes (PAEC) | Cases of hyperplasia ([1]; endometrial biopsies): no cases of hyperplasia | PAECs during follow-up ([1]; follow-up after 12 weeks treatment, FIG. 2): returned to background level | Amenorrhea until 6 months of treatment ([2]; 2 mg once daily, 2x12 weeks without treatment break, preliminary data): amenorrhea observed after 1×12 weeks is maintained | Rate of subjects with endometrial thickness above 18 mm [2, 4]: not found to be increased | Rates of adverse events with regard to ovarian cysts or bleeding [2, 4]: do not show increased rates of adverse events | Endometrial size [3]: ≤ 18 mm | Treatment-emergent critical endometrial findings [3]: no treatment-emergent critical endometrial findings occurred
